Test results from US12077503B2, “Substituted cyclic amides and their use as herbicides” (FMC CORPORATION, priority 2015, dated 2024).

Key:
Format in all cases: in vivo
[1] = test system: giant foxtail (Setaria faberi); test: Test G Pre-Emergence Protocol; conditions: Setaria faberi, pre-emergence, 312 h, evaluated after 13 days; for pest or weed control at 15.625 g/ha: 15.625 g ai/ha; for pest or weed control at 15.625 g/ha / pest or weed control at 250 g/ha: read-out: Foxtail, Giant damage rating (100=total damage to plant; 0=no damage to plant); for pest or weed control at 62.5 g/ha: 62.5 g ai/ha, 100=total damage to plant, 0=no damage to plant, read-out: Foxtail, Giant damage rating; for pest or weed control at 250 g/ha: 250 g ai/ha
Outline: (§1)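 Seeds were sown in standard soil and kept one day in a glasshouse (24/16° C day/night, 14 h light, 65% humidity), then sprayed with compound in acetone/water (50:50) containing 0.5% Tween 20 at 15.625, 62.5 or 250 g/ha. Damage was scored after 13 days (0 = none, 100 = total).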

[2] = test system: velvetleaf (Abutilon theophrasti); test: Test G Pre-Emergence Protocol; conditions: Abutilon theophrasti, pre-emergence, 312 h, evaluated after 13 days; for pest or weed control at 15.625 g/ha: 15.625 g ai/ha; for pest or weed control at 15.625 g/ha / pest or weed control at 250 g/ha: read-out: Velvetleaf damage rating (100=total damage to plant; 0=no damage to plant); for pest or weed control at 62.5 g/ha: 62.5 g ai/ha, 100=total damage to plant, 0=no damage to plant, read-out: Velvetleaf damage rating; for pest or weed control at 250 g/ha: 250 g ai/ha
Outline: as §1

[3] = test system: barnyardgrass (Echinochloa crus-galli); test: Test G Pre-Emergence Protocol; conditions: Echinochloa crus-galli, pre-emergence, 312 h, evaluated after 13 days; for pest or weed control at 15.625 g/ha: 15.625 g ai/ha; for pest or weed control at 15.625 g/ha / pest or weed control at 250 g/ha: read-out: Barnyardgrass damage rating (100=total damage to plant; 0=no damage to plant); for pest or weed control at 62.5 g/ha: 62.5 g ai/ha, 100=total damage to plant, 0=no damage to plant, read-out: Barnyardgrass damage rating; for pest or weed control at 250 g/ha: 250 g ai/ha
Outline: as §1

[4] = test system: ivy-leaved morning glory (Ipomoea hederacea); test: Test G Pre-Emergence Protocol; conditions: Ipomoea, pre-emergence, 312 h, evaluated after 13 days; for pest or weed control at 15.625 g/ha: 15.625 g ai/ha; for pest or weed control at 15.625 g/ha / pest or weed control at 250 g/ha: read-out: Morningglory, Ivy-leaved damage rating (100=total damage to plant; 0=no damage to plant); for pest or weed control at 62.5 g/ha: 62.5 g ai/ha, 100=total damage to plant, 0=no damage to plant, read-out: Morningglory, Ivy-leaved damage rating; for pest or weed control at 250 g/ha: 250 g ai/ha
Outline: as §1

[5] = test system: redroot pigweed (Amaranthus retroflexus); test: Test G Pre-Emergence Protocol; conditions: Amaranthus retroflexus, pre-emergence, 312 h, evaluated after 13 days; for pest or weed control at 15.625 g/ha: 15.625 g ai/ha; for pest or weed control at 15.625 g/ha / pest or weed control at 250 g/ha: read-out: Pigweed, Redroot damage rating (100=total damage to plant; 0=no damage to plant); for pest or weed control at 62.5 g/ha: 62.5 g ai/ha, 100=total damage to plant, 0=no damage to plant, read-out: Pigweed, Redroot damage rating; for pest or weed control at 250 g/ha: 250 g ai/ha
Outline: as §1

corn (Zea mays) [6] = test: Test G Pre-Emergence Protocol; conditions: Zea mays, pre-emergence, 312 h, evaluated after 13 days; for plant injury at 15.625 g/ha: 15.625 g ai/ha; for plant injury at 15.625 g/ha / plant injury at 250 g/ha: read-out: Corn damage rating (100=total damage to plant; 0=no damage to plant); for plant injury at 62.5 g/ha: 62.5 g ai/ha, 100=total damage to plant, 0=no damage to plant, read-out: Corn damage rating; for plant injury at 250 g/ha: 250 g ai/ha
Outline: as §1

[7] = test system: giant foxtail (Setaria faberi); test: Test G Post-Emergence Protocol; conditions: Setaria faberi, post-emergence, 312 h, read-out: Foxtail, Giant damage rating; for pest or weed control at 15.625 g/ha: 15.625 g ai/ha, evaluated after 13 days (100=total damage to plant; 0=no damage to plant); for pest or weed control at 62.5 g/ha: 62.5 g ai/ha; for pest or weed control at 62.5 g/ha / pest or weed control at 250 g/ha: evaluated after 13 days, 100=total damage to plant, 0=no damage to plant; for pest or weed control at 250 g/ha: 250 g ai/ha
Outline: (§2)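 A glasshouse post-emergence test: 8-day-old plants sprayed at 15.625, 62.5 or 250 g/ha, then grown at 24/16 °C day/night with 14 h light and 65% humidity. Damage rated 13 days later, 0–100.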

[8] = test system: velvetleaf (Abutilon theophrasti); test: Test G Post-Emergence Protocol; conditions: Abutilon theophrasti, post-emergence, 312 h, read-out: Velvetleaf damage rating; for pest or weed control at 15.625 g/ha: 15.625 g ai/ha, evaluated after 13 days (100=total damage to plant; 0=no damage to plant); for pest or weed control at 62.5 g/ha: 62.5 g ai/ha; for pest or weed control at 62.5 g/ha / pest or weed control at 250 g/ha: evaluated after 13 days, 100=total damage to plant, 0=no damage to plant; for pest or weed control at 250 g/ha: 250 g ai/ha
Outline: as §2

[9] = test system: barnyardgrass (Echinochloa crus-galli); test: Test G Post-Emergence Protocol; conditions: Echinochloa crus-galli, post-emergence, 312 h, read-out: Barnyardgrass damage rating; for pest or weed control at 15.625 g/ha: 15.625 g ai/ha, evaluated after 13 days (100=total damage to plant; 0=no damage to plant); for pest or weed control at 62.5 g/ha: 62.5 g ai/ha; for pest or weed control at 62.5 g/ha / pest or weed control at 250 g/ha: evaluated after 13 days, 100=total damage to plant, 0=no damage to plant; for pest or weed control at 250 g/ha: 250 g ai/ha
Outline: as §2

[10] = test system: ivy-leaved morning glory (Ipomoea hederacea); test: Test G Post-Emergence Protocol; conditions: Ipomoea, post-emergence, 312 h, read-out: Morningglory, Ivy-leaved damage rating; for pest or weed control at 15.625 g/ha: 15.625 g ai/ha, evaluated after 13 days (100=total damage to plant; 0=no damage to plant); for pest or weed control at 62.5 g/ha: 62.5 g ai/ha; for pest or weed control at 62.5 g/ha / pest or weed control at 250 g/ha: evaluated after 13 days, 100=total damage to plant, 0=no damage to plant; for pest or weed control at 250 g/ha: 250 g ai/ha
Outline: as §2

[11] = test system: redroot pigweed (Amaranthus retroflexus); test: Test G Post-Emergence Protocol; conditions: Amaranthus retroflexus, post-emergence, 312 h, read-out: Pigweed, Redroot damage rating; for pest or weed control at 15.625 g/ha: 15.625 g ai/ha, evaluated after 13 days (100=total damage to plant; 0=no damage to plant); for pest or weed control at 62.5 g/ha: 62.5 g ai/ha; for pest or weed control at 62.5 g/ha / pest or weed control at 250 g/ha: evaluated after 13 days, 100=total damage to plant, 0=no damage to plant; for pest or weed control at 250 g/ha: 250 g ai/ha
Outline: as §2

corn (Zea mays) [12] = test: Test G Post-Emergence Protocol; conditions: Zea mays, post-emergence, 312 h, read-out: Corn damage rating; for plant injury at 15.625 g/ha: 15.625 g ai/ha, evaluated after 13 days (100=total damage to plant; 0=no damage to plant); for plant injury at 62.5 g/ha: 62.5 g ai/ha; for plant injury at 62.5 g/ha / plant injury at 250 g/ha: evaluated after 13 days, 100=total damage to plant, 0=no damage to plant; for plant injury at 250 g/ha: 250 g ai/ha
Outline: as §2

Row | Structure (SMILES) | pest or weed control at 15.625 g/ha [1] [%] | pest or weed control at 62.5 g/ha [1] [%] | pest or weed control at 250 g/ha [1] [%] | pest or weed control at 15.625 g/ha [2] [%] | pest or weed control at 62.5 g/ha [2] [%] | pest or weed control at 250 g/ha [2] [%] | pest or weed control at 15.625 g/ha [3] [%] | pest or weed control at 62.5 g/ha [3] [%] | pest or weed control at 250 g/ha [3] [%] | pest or weed control at 15.625 g/ha [4] [%] | pest or weed control at 62.5 g/ha [4] [%] | pest or weed control at 250 g/ha [4] [%] | pest or weed control at 15.625 g/ha [5] [%] | pest or weed control at 62.5 g/ha [5] [%] | pest or weed control at 250 g/ha [5] [%] | plant injury at 15.625 g/ha (corn (Zea mays) [6]) [%] | plant injury at 62.5 g/ha (corn (Zea mays) [6]) [%] | plant injury at 250 g/ha (corn (Zea mays) [6]) [%] | pest or weed control at 15.625 g/ha [7] [%] | pest or weed control at 62.5 g/ha [7] [%] | also measured
1 | COCCOc1cc([C@@H]2CN(C)C(=O)[C@H]2C(=O)Nc2cccc(F)c2C)ccc1C (racemic) [Compound 1790] | 70 | 70 | 90 | 0 | 0 | 40 | 40 | 70 | 90 | 0 | 20 | 70 | 0 | 0 | 10 | 20 | 70 | 90 | 70 | 80 | pest or weed control at 250 g/ha [7]: 80%; pest or weed control at 15.625 g/ha [8]: 0%; pest or weed control at 62.5 g/ha [8]: 20%; pest or weed control at 250 g/ha [8]: 30%; pest or weed control at 15.625 g/ha [9]: 50%; pest or weed control at 62.5 g/ha [9]: 70%; pest or weed control at 250 g/ha [9]: 70%; pest or weed control at 15.625 g/ha [10]: 20%; pest or weed control at 62.5 g/ha [10]: 20%; pest or weed control at 250 g/ha [10]: 40%; pest or weed control at 15.625 g/ha [11]: 0%; pest or weed control at 62.5 g/ha [11]: 0%; pest or weed control at 250 g/ha [11]: 0%; plant injury at 15.625 g/ha (corn (Zea mays) [12]): 50%; plant injury at 62.5 g/ha (corn (Zea mays) [12]): 70%; plant injury at 250 g/ha (corn (Zea mays) [12]): 80%
2 | Cc1cc([C@H]2CN(C)C(=O)[C@@H]2C(=O)Nc2ccccc2S(C)(=O)=O)cc(C(F)(F)F)c1 (racemic) [Compound 1795] | 60 | 80 | 90 | 0 | 0 | 10 | 30 | 70 | 80 | 0 | 10 | 60 | 0 | 20 | 30 | 0 | 40 | 80 | 60 | 80 | pest or weed control at 250 g/ha [7]: 80%; pest or weed control at 15.625 g/ha [8]: 0%; pest or weed control at 62.5 g/ha [8]: 0%; pest or weed control at 250 g/ha [8]: 20%; pest or weed control at 15.625 g/ha [9]: 20%; pest or weed control at 62.5 g/ha [9]: 70%; pest or weed control at 250 g/ha [9]: 70%; pest or weed control at 15.625 g/ha [10]: 10%; pest or weed control at 62.5 g/ha [10]: 20%; pest or weed control at 250 g/ha [10]: 70%; pest or weed control at 15.625 g/ha [11]: 0%; pest or weed control at 62.5 g/ha [11]: 20%; pest or weed control at 250 g/ha [11]: 30%; plant injury at 15.625 g/ha (corn (Zea mays) [12]): 0%; plant injury at 62.5 g/ha (corn (Zea mays) [12]): 40%; plant injury at 250 g/ha (corn (Zea mays) [12]): 70%
